Experimental findings from ChEMBL document CHEMBL1201862, “PubChem BioAssay data set” (2004) are described below.

Test in all cases: NCI anticancer screen, dose series, 48 h
Experiment [1] has as its system 786-0.
Experiment [2] deals with A498.
The test system of experiment [3] is BT-549.
Experiment [4] deals with HOP-92.
The test system of experiment [5] is HT-29.
Experiment [6] relates to Hs-578T.
Experiment [7] relates to K562.
Experiment [8] concerns LOX IMVI.
Experiment [9] concerns Malme-3M.
In experiment [10] the test system is NCI-H226.
In experiment [11] the test system is NCI-H460.
Experiment [12] concerns OVCAR-4.
In experiment [13] the test system is OVCAR-5.
Experiment [14] deals with OVCAR-8.
Experiment [15] concerns SF-295.
For experiment [16], the system named is SK-MEL-28.
The subject of experiment [17] is SNB-75.
Experiment [18] deals with SNB-78.
The test system of experiment [19] is U-251.
Experiment [20] deals with UO-31.

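48-hour exposure; five concentrations; linearly interpolated endpoints. The concentration for 50% growth inhibition is given as GI50.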 Calls of active or inactive are those of the source. Rule as the data show it: active = GI50 up to about 1.1 µM and inactive = higher. Bounds are passed on as bounds.

Regarding `COC1=CC(=O)c2c(ccc3ncnc(N)c23)C1=O`, the GI50 is 1.78 µM (inactive) in [1]; 2.22 µM (inactive) in [2]; 1.79 µM (inactive) in [3]; 1.63 µM (inactive) in experiment [4]; 2.1 µM (inactive) in experiment [5]; 3.3 µM (inactive) in experiment [6]. Moreover, the GI50 was 0.659 µM (active) in experiment [7]; 1.03 µM (active) in experiment [8]; 2.63 µM (inactive) in experiment [9]; 2.2 µM (inactive) in [10]; 4.29 µM (inactive) in [11]; 0.561 µM (active) in experiment [12]. For the same molecule, the GI50 in experiment [13] is 2 µM (inactive); in experiment [14], 2.11 µM (inactive); in experiment [15], 3.62 µM (inactive); in [16], 2.36 µM (inactive); in experiment [17], 3.57 µM (inactive); in experiment [18], 2.36 µM (inactive). Also, the GI50 in experiment [19] is 1.74 µM (inactive); in experiment [20], 2.31 µM (inactive).
As to `COc1ccc(NC(=O)C2C(=O)N(c3ccc(OC)cc3)C(=O)/C2=N\NC(N)=O)cc1` (stereo not drawn), the GI50 in [1] is 21.5 µM (inactive); in experiment [2], 22.1 µM (inactive); in experiment [4], 31.3 µM (inactive); in experiment [5], 58.6 µM (inactive); in experiment [7], > 100 µM (inactive); in experiment [8] it was 65.8 µM (inactive). For the same molecule, the GI50 in experiment [9] was 25.7 µM (inactive); in experiment [10], 21.8 µM (inactive); in experiment [11], 38.9 µM (inactive); in experiment [12] it was 34.1 µM (inactive); in experiment [13], 97.5 µM (inactive); in experiment [14], 19.4 µM (inactive). The GI50 in experiment [15] was 37.1 µM (inactive); in experiment [16], 59.7 µM (inactive); in experiment [17], 20.6 µM (inactive); in experiment [18], 57.1 µM (inactive); in experiment [19], 18.5 µM (inactive); in experiment [20] it was 27.7 µM (inactive).
With `CCCCC1NC=Nc2c1ccc1c2[nH]c2ccccc21` (stereo not drawn), the GI50 in [1] is 1.79 µM (inactive); in experiment [2] it was 14.4 µM (inactive); in experiment [3], 2.02 µM (inactive); in experiment [4], 3.94 µM (inactive); in experiment [5] it was 1.86 µM (inactive); in experiment [6] it was 2.14 µM (inactive). Also, the GI50 was 1.87 µM (inactive) in experiment [7]; 1.94 µM (inactive) in experiment [8]; 5.33 µM (inactive) in [9]; 7.62 µM (inactive) in experiment [10]; 2.17 µM (inactive) in experiment [11]; 2.7 µM (inactive) in [12]. In addition, the GI50 in experiment [13] was 4.63 µM (inactive); in experiment [14], 2.03 µM (inactive); in [15] it was 2.48 µM (inactive); in experiment [16], 10.3 µM (inactive); in experiment [17], 4.02 µM (inactive); in experiment [18] it was 13 µM (inactive). The GI50 in experiment [19] is 2.95 µM (inactive); in experiment [20], 10.3 µM (inactive).
